From patent publication US20250352524A1, “PREVENTION OF METASTATIC OUTGROWTH USING TEAD INHIBITORS” (Georgetown University, priority 2024, published 2025)

Columns and labels:
[1] = test system: bone marrow-derived macrophages; assay: Cytokine array of conditioned media, bone marrow-derived macrophages; assay type: cell-based, mouse; conditions: 1 μM VT107 for 24 hours
From the text: Due to the shifts in immune signaling observed in the lung tissue upon TEAD inhibition (FIG. 9), immune cell populations were first analyzed by flow cytometry in the lungs and spleens of tumor naïve mice. Consistent with the Cibersort analysis of RNA-seq data, there was a decrease in the monocytes population and an increase in the tissue-resident alveolar macrophages (AM) (FIG. 10, Panel A). […] Next, it was sought to determine the specific effects of iTEAD treatment on lung resident versus bone-marrow derived macrophages, as the dynamics of these cell populations are crucial for the establishment of the metastatic niche (Ries et al., 2014; Qian et al., 2011). Macrophages were retrieved from the lungs by isolating F4/80+ cells, a specific marker for murine macrophages, by FACS (fluorescence-activated cell sorting) as well as bone marrow-derived macrophages from the femurs of naïve C57BL/6 mice that were then differentiated in vitro using macrophage colony stimulating factor (M-CSF). Macrophages were treated with 1 μM of VT107 for 24 hours before the conditioned media was collected and analyzed on a cytokine array. […] There was no change in the level of the other cytokines detected (FIG. 10, Panel B). […]

[2] = test system: DCIS and DCIS-Δ4 mixed 3D spheres; assay: Invasion of DCIS and DCIS-Δ4 mixed 3D spheres in collagen:matrigel mix; assay type: cell-based, human
Description: To determine iTEAD effect on lung immune microenvironment at steady state, naïve C57/BL6 mice were treated with iTEAD. […] In the absence of cancer cells in these naïve mice, no change in CD8+ T-cells was observed between treatment groups. […] On the cancer cell front, TEAD inhibition had no effect on proliferation yet reduced migration and 3D spheroid collective invasion of breast cancer cells in vitro.

4T1 cells = 4T1 cells injected into tail vein of BALB/c mice, lung metastasis and T-cell profiling; assay type: in vivo
Description: There was no difference in the primary tumor size between treatment groups nor the size of recurrent tumors at 6 weeks (FIG. 9, Panel B and FIG. 8, Panel C). […] To investigate tissue specific effects, gene expression changes between treatment groups in lung and tumor tissues were analyzed by RNA-sequencing. […] To reduce the impact of TEAD inhibition on cancer cell intrinsic function such as dissemination and invasion, 4T1, a triple negative mouse mammary carcinoma cell line (Pulaski & Ostrand-Rosenberg, 2000), was injected into the tail vein of BALB/c mice that directly seed into the lung tissue. A reduction in lung metastases, as well as the suppression of inflammatory pathways, were observed (FIG. 9, Panels E and F, and FIG. 8, Panel F).
To determine early changes in the T-cell population, lung and spleen tissues of BALB/c mice that were intravenously injected with 4T1 were processed and analyzed by flow cytometry 10 days post inoculation (FIG. 9, Panel E). […] M1-like macrophages and IL12 signaling play a critical role in the crosstalk between macrophages and T-cells triggering their proliferation and differentiation of T-cell subsets that can eliminate tumor cells unlike the pro-tumor M2-like macrophages (Guerriero, 2019; Oishi et al., 2016; Shao et al., 2023). Thus, the interplay between macrophage and T-cells after iTEAD treatment is likely to play a role in the increase in CD8+ T-cell and Th1 CD4+ cell populations in the lungs.
Formalin-fixed, paraffin embedded (FFPE) lung tissue sections were stained with hematoxylin and eosin. Immunohistochemistry staining was performed on FFPE tumor and lung tissue sections. Slides were deparaffinized in xylene and rehydrated following a series of ethanol washes. Heat-induced antigen retrieval was then performed by placing slides in warmed sodium citrate buffer (pH 6.0) (Invitrogen, 005000) in a pre-heated steamer for 20 minutes. Slides were cooled at room temperature for an additional 20 minutes, prior to quenching endogenous peroxidase activity using 3% hydrogen peroxide buffer (Fisher, BP2633500) for 10 minutes. Next, slides were incubated overnight at 4° C. with either anti-CD8 (Cell Signaling Technology, #98941), anti-CD68 (Abcam, ab303565), anti-CD206 (Cell Signaling Technology, #24595), or anti-F480 (Cell Signaling Technology, #70076). Following PBS washes, the slides are then stained with a biotinylated secondary antibody using the VECTASTAIN Elite ABC-HRP Kit according to the user's manual (Vector Laboratories, PK-6101). Positive brown staining was produced by applying ImmPACT DAB EqV Substrate Kit (Vector Laboratories, SK-4103) to the slides, which were then counterstained with hematoxylin (Sigma, MHS16). Images were captured using the Olympus BX40 microscope, and positive staining was quantified manually. Immunofluorescent staining was performed on lung tissue sections. Slides were baked at 60°, deparaffinized in xylene, rehydrated, washed in DI water and incubated with 10% neutral buffered formalin (NBF) for an additional 20 minutes to increase tissue-slide retention. Epitope retrieval/microwave treatment (MWT) for all antibodies was performed by boiling slides in Antigen Retrieval buffer 6 (AR6 pH6, Akoya AR6001KT). Protein blocking is performed using antibody diluent/blocking buffer (Akoya, ARD1001EA) for 10 minutes at room temperature. […] Slides were scanned at 10× magnification using the Vectra 3.0 Automated Quantitative Pathology Imaging System (PerkinElmer/Akoya). […]

Substance: VT107
- secreted IL4 levels [1]: reduced
- secreted IL12 [1]: no effect
- migration of breast cancer cells in vitro [2]: reduced
- 3D spheroid collective invasion ([2]; vs control): reduced
- inflammatory pathways in lungs (4T1 cells; 30 mg/kg VT107 daily): suppression
- lung metastases (4T1 cells; 30 mg/kg VT107 daily by oral gavage vs vehicle): reduction
- T-bet staining in the lungs (4T1 cells; IHC, week 2): significant increase
- overall abundance of CD4+ and CD8+ T-cell populations (4T1 cells; flow cytometry 10 days post inoculation): no difference
- helper 1 T-cell (Th1) population (4T1 cells; flow cytometry 10 days post inoculation, lung): increased
